Assay results from patent US20020031483A1, “HAIR TREATMENT COMPOSITION COMPRISING A SUGAR OR CARBOHYDRATE FOR THE PURPOSES OF PARTICIPATING IN OXYGEN CONSUMPTION OF A HAIR METHOD AND USE” (priority 1998, published 2002).
Entries after “also recorded” stand apart in the source; their conditions may differ. Where a name gives a salt, the structure may show the parent alone.

Experiments:
human hair follicles [1] = experiment: tissue or blood; format: cell-based; conditions: read-out: inhibition of oxygen consumption by the follicles
Experimental: Follicles were isolated from human facelift skin and grown in culture according to the methods described (Philpott et al J.Cell.Sci.97: pp 463-470 1990). For the oxygen consumption experiments a Clarke electrode apparatus (Tank Brothers Limited, Cambridge, England) was used.
The equipment was set up in accordance with the manufacturers instructions, the temperature of the cell being maintained at 37° C. using a circulating water bath. The output of the electrode was recorded using Perkin Elmer Turbochrom 4 data logging software.
The apparatus contains a Teflon membrane in the cell which was changed daily and the cell calibrated and prepared for use as follows. […] After recording this new ‘zero oxygen’ baseline the medium was reoxygenated by bubbling air through and the new baseline recorded. […]
After calibration, a fresh 2 ml sample of William's E medium gassed with 5% carbon dioxide in air was added, the plunger inserted into the cell ensuring that no air bubble was trapped, and the output from the cell recorded to give a rate for oxygen consumption of the cell. […] The new rate of oxygen consumption was recorded for a sufficient time as to enable its accurate determination. […]
From the calibration of the electrode, a curve was derived from which a baseline reading corresponding to zero oxygen level could be derived. […]

human hair follicles [2] = experiment: Evolution of radiolabelled CO2 from radiolabelled substrate by cultured hair follicles; format: cell-based; conditions: five follicles per tube, 37° C.
Experimental: Hair follicles were isolated from human scalp skin obtained from four different female subjects; hair follicles were isolated from human scalp skin and placed into a 6 well culture plate at a density of 15 follicles/well in 5 mL complete Williams E medium containing penicillin (50 μg/mL), streptomycin (50 IU/mL), L-glutamine (2 mM), hydrocortisone (10 ng/mL) and insulin (10 μg/mL). In addition a cocktail of amino acids consisting of arginine (0.45 mM) proline (1 mM), glycine (2.6 mM) and alanine (1 mM) was also added since these are though to improve the maintenance of hair follicles in vitro. After an overnight incubation (37° C., 5% CO2 in air) to ensure continued growth following the isolation procedure, follicles were cut to a uniform length and incubated until required.
For each experimental time point, five follicles were transferred to each of 3 eppendorf tubes in triplicate with 10 μL medium. […] After the seals had been removed the medium was sampled for counting the remaining radioactivity (3×10 μL). The KOH solution was analysed by liquid scintillation counting (Beckman LS 60001C) after addition of 18 mL Hionic Fluor (Packard).
Results from the mean of each triplicate control were subtracted from the corresponding mean from the experimental results. These combined results were then analysed by regression. […]

SMILES: [N-]=[N+]=[N-] [sodium azide]
- inhibition at 2000 µM (human hair follicles [1]): 54 to 87%

SMILES: C[C@]12CC[C@H]3[C@@H](CC[C@]4(O)C[C@@H](O)CC[C@]34C=O)[C@@]1(O)CC[C@@H]2C1=CC(=O)OC1 [strophanthidin, Strophanthidin]
- inhibition at 100 µM (human hair follicles [1]; 0.1 mM strophanthidin, 160 follicles in 2 ml medium, 37° C.): 76%

SMILES: O=C(O)CC(O)(CC(=O)O)C(=O)O [citrate, [1,5-^14C]-sodium citrate]
- average production of CO2 evolved from metabolism of citrate (human hair follicles [2]; [1,5-14C]-sodium citrate, about 3 μCi in 100 μL medium, up to 12 h): 0.23 (±0.04) μmol CO2
- uptake and metabolism by hair follicles (radiolabelled CO2 evolution), result in words (human hair follicles [2]; radiolabelled substrate in medium): linear increase in the amount of CO2 evolved; also recorded: taken up into hair follicles and used as an energy source
